# What was measured:
# [1] = tested on: hippocampal slices; experiment: AβO-treated organotypic hippocampal slice cultures; assay type: cell-based, mouse
# Procedure: Hippocampal slice cultures (400 μm-thick) were prepared from 7-day-old C57BL/6J mice as previously described (25) and cultured for 10 days in vitro before use. Neuronal damage in the slices was monitored by PI uptake following Bernardino et al (27). PI itself is not toxic to neurons (27). […] After 24 hrs, the slices were observed under a Nikon Eclipse E600 microscope and the red (630 nm) fluorescence emitted by PI taken up by damaged cells was photographed by a digital camera (SPOT RTke, SPOT Diagnostics, Sterling Heights, Mich.) with fixed exposure time.
# For immunofluorescent staining of neurons, cultures were fixed in 4% paraformaldehyde and stained with anti-PSD95 (1:200, Cell Signaling), anti-MAP2 (1:500, Chemicon) and anti-acetylated α-tubulin (1:250, Zymed). For immunofluorescent staining of microglia, cultures or hippocampal slices were fixed in 4% paraformaldehyde and stained with anti-IBA1 (1:500, Wako Chemicals USA), anti-SRA (E-20, 1:200, Santa Cruz Biotechnology), and anti-CD11b (1:200, AbD Serotec USA, Raleigh, N.C.). The fixed cells or hippocampal slices were incubated with antibodies for overnight at 4° C. followed by secondary Alexa488 conjugated anti-mouse or Alexa568 conjugated anti-rabbit antibody (1:700, Molecular probes). Immunostained images were observed under a Nikon Eclipse E600 microscope and photographed by a digital camera (SPOT RTke, SPOT Diagnostics, Sterling Heights, Mich.).
# To obtain lysates, cells or tissues were washed with ice-cold PBS and incubated with a buffer containing 50 mmol/L Tris-HCl (pH 7.4), 150 mmol/L NaCl, 2% SDS, proteinase inhibitor cocktail (Sigma), and phosphatase inhibitor cocktail (Sigma). Lysates were briefly sonncated and cleared by centrifugation at 50,000 rpm for 10 min. Equivalent amounts of protein were analyzed by Tris/HCL gel electrophoresis. Proteins were transferred to polyvinylidene difluoride membranes and probed with antibodies. Visualization was performed using enhanced chemiluminescence (ECL, Amersham Pharmacia, Piscataway, N.J.).
# Conditioned medium collected from microglia cultures (1×10^5/0.75 cm^2) and hippocampal slices treated with Aβ for 24 hrs were analyzed by the Nitric Oxide Quantization Kit according to the protocol of the manufacturer (Active Motif, Carlsbad, Calif.). Data were normalized to the amount of total protein.
# [2] = target: T1, KCa3.1 (Mus musculus, UniProt O89109); experiment: Whole-cell patch-clamp of mouse microglia KCa currents; assay type: cell-based; conditions: 1 μM TRAM-34; voltage-ramps −120 to +40 mV; FIG. 4A
# T1 construct: endogenous in cells; host or cells: primary mouse microglia harvested from the astrocyte feeder layer
# T1 sequence (O89109 whole entry): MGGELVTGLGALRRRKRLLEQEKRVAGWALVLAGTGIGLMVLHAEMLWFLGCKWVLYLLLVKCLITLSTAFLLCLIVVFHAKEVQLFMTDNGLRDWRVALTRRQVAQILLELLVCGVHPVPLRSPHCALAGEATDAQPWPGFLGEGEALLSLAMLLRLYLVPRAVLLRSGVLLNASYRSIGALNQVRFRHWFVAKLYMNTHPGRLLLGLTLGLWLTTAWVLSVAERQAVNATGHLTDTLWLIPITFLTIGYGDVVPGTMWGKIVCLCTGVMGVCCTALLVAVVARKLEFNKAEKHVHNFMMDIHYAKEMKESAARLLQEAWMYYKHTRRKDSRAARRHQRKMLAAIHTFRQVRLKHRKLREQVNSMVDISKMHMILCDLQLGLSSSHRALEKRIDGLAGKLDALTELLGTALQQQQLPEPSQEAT
# Procedure: Microglia, that were “floating off” from their feeding astrocyte layer, were harvested with a pipette, washed, attached to poly-L-lysine coated cover-slips, and then studied in the whole-cell mode of the patch-clamp technique with an EPC-10 HEKA amplifier. The pipette solution contained 145 mM K^+ aspartate, 2 mM MgCl2, 10 mM HEPES, 10 mM K2EGTA and 8.5 mM CaCl2 (1 μM free Ca^2+), pH 7.2, 290 mOsm. To reduce chloride “leak” currents, we used a Na^+ aspartate external solution containing 160 mM Na^+ aspartate, 4.5 mM KCl, 2 CaCl2, 1 mM MgCl2, 5 mM HEPES, pH 7.4, 300 mOsm. K^+ currents were elicited with voltage ramps from −120 to 40 mV of 200 ms duration applied every 10 s. […] Cell capacitance, a direct measurement of cell surface area, was continuously monitored during recordings. KCa3.1 current density was determined by dividing the TRAM-34-sensitive slope conductance by the cell capacitance.
smiles,measurement,setting,value
"Clc1ccccc1C(c1ccccc1)(c1ccccc1)n1cccn1 [TRAM-34, 1-[(2-chlorophenyl)diphenylmethyl]-1H-pyrazole]",AβO-induced microglia activation in hippocampal slices,"[1]; 20 nM AβO 24 hrs, co-treatment, FIG. 7A, 7C",substantially ameliorated
same,AβO-induced NO production from hippocampal slices,"[1]; 20 μM doxycycline, 1 μM TRAM-34, FIG. 7B",prevented
same,AβO-enhanced PI uptake (neuronal damage) in hippocampal slices,"[1]; 20 μM doxycycline, 1 μM TRAM-34, FIG. 7C",ameliorated
same,AβO-induced reduction of dendritic and post-synaptic proteins in hippocampal slices,"[1]; co-treatment, FIG. 7D",substantially ameliorated
same,"NO production from hippocampal slices, compound alone",[1]; without AβO,did not affect NO production
same,sensitivity of voltage-independent current component,[2],sensitive

# Reference: US20130281504A1, “Reduction of Microglia-Mediated Neurotoxicity by KCa3.1 Inhibition” (THE REGENTS OF THE UNIVERSITY OF CALIFORNIA, priority 2010, published 2013)
